Experimental data taken from paper PMC3961306, “Comparison of the Cancer Gene Targeting and Biochemical Selectivities of All Targeted Kinase Inhibitors Approved for Clinical Use” (PLoS ONE, 2014).

Key:
Experiment in all cases: Kinase profiling in a biochemical assay panel (mobility shift assays and ELISA), %-inhibition at 1 μM; selectivity entropy
[1] = target: panel of more than 300 wild-type and mutant kinases (313 kinase panel) (Homo sapiens, UniProt Q00534); details: kinase CDK6/CycD3; 1 μM compound
[2] = target: panel of more than 300 wild-type and mutant kinases (313 kinase panel) (Homo sapiens, UniProt P45984); details: kinase JNK2; compound at 1 μM
[3] = target: panel of more than 300 wild-type and mutant kinases (313 kinase panel) (Homo sapiens, UniProt P23458); details: kinase JAK1; compound at 1 μM
[4] = target: panel of more than 300 wild-type and mutant kinases (313 kinase panel) (Homo sapiens, UniProt Q15208); details: kinase NDR1; 1 μM
[5] = target: T1, panel of more than 300 wild-type and mutant kinases (313 kinase panel) (Homo sapiens, UniProt Q16832); details: kinase DDR2; compound at 1 μM
T1 sequence (Q16832 22-855): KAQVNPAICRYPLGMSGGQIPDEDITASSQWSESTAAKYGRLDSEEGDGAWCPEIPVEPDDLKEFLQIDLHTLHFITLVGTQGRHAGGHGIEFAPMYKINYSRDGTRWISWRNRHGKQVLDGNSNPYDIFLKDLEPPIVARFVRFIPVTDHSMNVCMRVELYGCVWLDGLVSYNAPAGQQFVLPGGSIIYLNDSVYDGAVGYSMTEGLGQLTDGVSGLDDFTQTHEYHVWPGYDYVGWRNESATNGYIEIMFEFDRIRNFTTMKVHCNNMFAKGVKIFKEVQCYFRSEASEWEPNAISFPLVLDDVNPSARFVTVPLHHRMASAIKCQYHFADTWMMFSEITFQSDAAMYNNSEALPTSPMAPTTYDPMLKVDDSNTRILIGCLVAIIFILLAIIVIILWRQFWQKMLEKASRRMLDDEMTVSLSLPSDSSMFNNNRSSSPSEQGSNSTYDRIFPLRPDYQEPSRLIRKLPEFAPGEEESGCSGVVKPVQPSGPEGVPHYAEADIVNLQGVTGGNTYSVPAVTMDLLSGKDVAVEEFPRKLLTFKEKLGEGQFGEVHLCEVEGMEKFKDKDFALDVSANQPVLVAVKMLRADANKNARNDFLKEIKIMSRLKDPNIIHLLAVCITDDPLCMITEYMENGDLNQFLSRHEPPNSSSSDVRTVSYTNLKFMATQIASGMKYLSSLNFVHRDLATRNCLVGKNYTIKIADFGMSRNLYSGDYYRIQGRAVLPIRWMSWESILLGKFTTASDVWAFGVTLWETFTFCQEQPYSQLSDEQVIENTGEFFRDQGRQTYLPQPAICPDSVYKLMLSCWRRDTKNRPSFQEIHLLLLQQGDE

[6] = target: panel of more than 300 wild-type and mutant kinases (313 kinase panel) (Homo sapiens, UniProt Q7KZI7); details: kinase MARK2; compound at 1 μM
[7] = target: T2, panel of more than 300 wild-type and mutant kinases (313 kinase panel) (Homo sapiens, UniProt Q99683); details: kinase MAP3K5; compound at 1 μM
T2 sequence (Q99683 1-1374): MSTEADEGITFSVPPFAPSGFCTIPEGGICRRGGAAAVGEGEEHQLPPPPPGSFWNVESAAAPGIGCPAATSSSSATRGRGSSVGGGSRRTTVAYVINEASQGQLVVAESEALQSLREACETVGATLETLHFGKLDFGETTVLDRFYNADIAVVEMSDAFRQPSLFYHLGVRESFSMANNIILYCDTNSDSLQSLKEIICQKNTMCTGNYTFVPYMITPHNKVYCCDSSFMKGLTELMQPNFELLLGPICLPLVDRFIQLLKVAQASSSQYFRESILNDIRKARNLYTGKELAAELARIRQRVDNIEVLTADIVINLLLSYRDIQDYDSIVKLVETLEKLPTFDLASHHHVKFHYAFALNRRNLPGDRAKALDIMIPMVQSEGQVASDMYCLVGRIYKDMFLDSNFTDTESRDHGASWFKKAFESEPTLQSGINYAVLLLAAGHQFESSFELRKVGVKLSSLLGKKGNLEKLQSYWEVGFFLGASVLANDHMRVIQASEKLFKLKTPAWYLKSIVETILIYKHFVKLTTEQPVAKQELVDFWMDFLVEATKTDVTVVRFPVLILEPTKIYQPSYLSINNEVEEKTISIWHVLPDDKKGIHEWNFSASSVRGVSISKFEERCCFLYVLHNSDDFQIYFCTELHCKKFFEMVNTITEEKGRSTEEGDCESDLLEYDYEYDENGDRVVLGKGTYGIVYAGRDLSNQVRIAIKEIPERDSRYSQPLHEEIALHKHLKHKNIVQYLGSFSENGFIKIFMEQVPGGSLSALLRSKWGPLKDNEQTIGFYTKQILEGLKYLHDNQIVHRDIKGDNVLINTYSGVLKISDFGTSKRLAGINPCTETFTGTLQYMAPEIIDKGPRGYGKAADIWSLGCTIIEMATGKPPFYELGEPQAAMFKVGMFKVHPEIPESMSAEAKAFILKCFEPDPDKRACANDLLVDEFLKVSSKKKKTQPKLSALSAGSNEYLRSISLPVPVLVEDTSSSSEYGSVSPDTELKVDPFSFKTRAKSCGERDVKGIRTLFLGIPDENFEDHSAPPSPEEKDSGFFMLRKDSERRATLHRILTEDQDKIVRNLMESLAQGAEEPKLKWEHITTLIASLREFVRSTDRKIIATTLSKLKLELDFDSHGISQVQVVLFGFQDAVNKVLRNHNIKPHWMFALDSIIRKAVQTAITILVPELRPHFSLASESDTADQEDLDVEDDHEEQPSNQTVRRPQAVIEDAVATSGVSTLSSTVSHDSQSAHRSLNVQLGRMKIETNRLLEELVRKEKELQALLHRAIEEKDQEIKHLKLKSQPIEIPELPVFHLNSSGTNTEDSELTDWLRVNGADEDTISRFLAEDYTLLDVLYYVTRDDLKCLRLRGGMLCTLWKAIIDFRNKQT

panel of more than 300 wild-type and mutant kinases (313 kinase panel) (Homo sapiens, UniProt P45984), sequence (P45984 whole entry, change not shown): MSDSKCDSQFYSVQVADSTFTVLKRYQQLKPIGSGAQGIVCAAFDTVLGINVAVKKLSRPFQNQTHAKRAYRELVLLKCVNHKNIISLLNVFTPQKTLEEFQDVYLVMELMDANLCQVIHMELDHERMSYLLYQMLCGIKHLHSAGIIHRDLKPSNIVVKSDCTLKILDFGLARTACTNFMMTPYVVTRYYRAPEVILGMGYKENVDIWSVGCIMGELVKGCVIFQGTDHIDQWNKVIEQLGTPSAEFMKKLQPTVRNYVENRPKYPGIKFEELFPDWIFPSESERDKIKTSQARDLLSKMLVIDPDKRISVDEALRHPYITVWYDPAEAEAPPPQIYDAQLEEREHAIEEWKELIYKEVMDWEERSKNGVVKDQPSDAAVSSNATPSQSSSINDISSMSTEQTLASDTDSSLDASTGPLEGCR
panel of more than 300 wild-type and mutant kinases (313 kinase panel) (Homo sapiens, UniProt Q15208), sequence (Q15208 whole entry, change not shown): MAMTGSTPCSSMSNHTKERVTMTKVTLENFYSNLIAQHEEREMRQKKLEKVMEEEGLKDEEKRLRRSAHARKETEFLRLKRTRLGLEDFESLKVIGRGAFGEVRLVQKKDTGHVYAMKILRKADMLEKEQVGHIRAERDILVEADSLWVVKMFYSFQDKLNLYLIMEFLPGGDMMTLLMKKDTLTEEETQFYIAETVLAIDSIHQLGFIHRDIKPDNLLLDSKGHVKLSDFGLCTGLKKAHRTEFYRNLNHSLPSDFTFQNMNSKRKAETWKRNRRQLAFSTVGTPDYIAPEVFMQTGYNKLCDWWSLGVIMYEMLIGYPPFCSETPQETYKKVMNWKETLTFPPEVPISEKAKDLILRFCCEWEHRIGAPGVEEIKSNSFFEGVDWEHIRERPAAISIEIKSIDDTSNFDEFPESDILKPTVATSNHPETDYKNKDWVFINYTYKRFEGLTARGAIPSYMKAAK

| Structure (SMILES) | %-inhibition, CDK6/CycD3 [1] | %-inhibition of JNK2 [2] | %-inhibition of JAK1 [3] | %-inhibition of NDR1 [4] | %-inhibition of DDR2 [5] | %-inhibition of MARK2 [6] | %-inhibition of MAP3K5 [7] |
| --- | --- | --- | --- | --- | --- | --- | --- |
| CC(=O)Nc1cccc(-n2c(=O)n(C3CC3)c(=O)c3c(Nc4ccc(I)cc4F)n(C)c(=O)c(C)c32)c1 [trametinib] | -4.23% | -4.73% | -1.83% | -1.68% | 0.612% | -6% | 17% |
| COc1cc2c(Nc3ccc(Br)cc3F)ncnc2cc1OCC1CCN(C)CC1 [vandetanib] | -1.19% | -4% | -3.31% | -9% | 101% | -9% | 8% |
| CCCS(=O)(=O)Nc1ccc(F)c(C(=O)c2c[nH]c3ncc(-c4ccc(Cl)cc4)cc23)c1F [vemurafenib] | 2.43% | -0.0632% | 46% | -3.81% | 69% | -0.167% | 13% |
